Measurements: PubChem BioAssay AID1963849 (Molecular Pharmacology Branch, DTP, NCI, 2024)

Tested on: 299254-011-R-J1-PDC complex spheroid viability
Test: Anticancer human tumor 299254-011-R-J1-PDC patient-derived melanoma cell line growth inhibition [POLQ]
Conditions: for IC50: curve of first compound; for viability, T/C: stronger effect = lower value
Procedure, shortened: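 Three-cell-type spheroids modelling solid tumor plus stroma served as the readout system; POL inhibitors were tested individually and in combination, concentration ranges set by clinical Cmax where known.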

[1] = second compound 0.0316 µM, first compound 0.00316 µM
[2] = second compound 0.0316 µM, first compound 0.01 µM
[3] = second compound 0.0316 µM, first compound 0.0316 µM
[4] = second compound 0.0316 µM, first compound 0.1 µM
[5] = second compound 0.0316 µM, first compound 0.316 µM
[6] = second compound 0.0316 µM, first compound 1 µM
[7] = second compound 0.1 µM, first compound 0.00316 µM
[8] = second compound 0.1 µM, first compound 0.01 µM
[9] = second compound 0.1 µM, first compound 0.0316 µM
[10] = second compound 0.1 µM, first compound 0.1 µM
[11] = second compound 0.1 µM, first compound 0.316 µM
[12] = second compound 0.1 µM, first compound 1 µM
[13] = second compound 0.316 µM, first compound 0.00316 µM
[14] = second compound 0.316 µM, first compound 0.01 µM
[15] = second compound 0.316 µM, first compound 0.0316 µM
[16] = second compound 0.316 µM, first compound 0.1 µM
[17] = second compound 0.316 µM, first compound 0.316 µM
[18] = second compound 0.316 µM, first compound 1 µM
[19] = second compound 1 µM, first compound 0.00316 µM
[20] = second compound 1 µM, first compound 0.01 µM
[21] = second compound 1 µM, first compound 0.0316 µM
[22] = second compound 1 µM, first compound 0.1 µM
[23] = second compound 1 µM, first compound 0.316 µM
[24] = second compound 1 µM, first compound 1 µM
[25] = second compound 3.16 µM, first compound 0.00316 µM
[26] = second compound 3.16 µM, first compound 0.01 µM
[27] = second compound 3.16 µM, first compound 0.0316 µM
[28] = second compound 3.16 µM, first compound 0.1 µM
[29] = second compound 3.16 µM, first compound 0.316 µM
[30] = second compound 3.16 µM, first compound 1 µM
[31] = second compound 10 µM, first compound 0.00316 µM
[32] = second compound 10 µM, first compound 0.01 µM
[33] = second compound 10 µM, first compound 0.0316 µM
[34] = second compound 10 µM, first compound 0.1 µM
[35] = second compound 10 µM, first compound 0.316 µM
[36] = second compound 10 µM, first compound 1 µM
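Also: spheroids exposed to drugs for one week before measurement.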
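For viability, T/C in this document: percent viability relative to DMSO vehicle control taken as 100%.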

Structure (SMILES): C=CCn1c(=O)c2cnc(Nc3ccc(N4CCN(C)CC4)cc3)nc2n1-c1cccc(C(C)(C)O)n1 + Nc1ccc(C#CCN(C(=O)Cc2ncc(C(F)(F)F)cc2C(F)(F)F)c2ccc(F)cc2)nn1
- IC50 (second compound 0.0316 µM): > 1 µM
- IC50 (second compound 0.1 µM): > 1 µM
- IC50 (second compound 0.316 µM): > 1 µM
- IC50 (second compound 1 µM): > 1 µM
- IC50 (second compound 3.16 µM): > 1 µM
- IC50 (second compound 10 µM): > 1 µM
- viability, T/C [1]: 104%
- viability, T/C [2]: 85%
- viability, T/C [3]: 98.5%
- viability, T/C [4]: 105%
- viability, T/C [5]: 95.8%
- viability, T/C [6]: 68.3%
- viability, T/C [7]: 101%
- viability, T/C [8]: 93.1%
- viability, T/C [9]: 94.9%
- viability, T/C [10]: 102%
- viability, T/C [11]: 104%
- viability, T/C [12]: 69.9%
- viability, T/C [13]: 104%
- viability, T/C [14]: 101%
- viability, T/C [15]: 93.4%
- viability, T/C [16]: 93.4%
- viability, T/C [17]: 104%
- viability, T/C [18]: 74.6%
- viability, T/C [19]: 102%
- viability, T/C [20]: 120%
- viability, T/C [21]: 107%
- viability, T/C [22]: 97.2%
- viability, T/C [23]: 94.4%
- viability, T/C [24]: 58%
- viability, T/C [25]: 95.5%
- viability, T/C [26]: 95.5%
- viability, T/C [27]: 95.7%
- viability, T/C [28]: 95.3%
- viability, T/C [29]: 101%
- viability, T/C [30]: 72.5%
- viability, T/C [31]: 103%
- viability, T/C [32]: 92%
- viability, T/C [33]: 88.6%
- viability, T/C [34]: 87.5%
- viability, T/C [35]: 77.3%
- viability, T/C [36]: 58.9%

Structure (SMILES): CCCS(=O)(=O)Nc1ccc(F)c(C(=O)c2c[nH]c3ncc(-c4ccc(Cl)cc4)cc23)c1F + Nc1ccc(C#CCN(C(=O)Cc2ncc(C(F)(F)F)cc2C(F)(F)F)c2ccc(F)cc2)nn1
- IC50 (second compound 0.0316 µM): 9.62 µM
- IC50 (second compound 0.1 µM): 9.01 µM
- IC50 (second compound 0.316 µM): 9.95 µM
- IC50 (second compound 1 µM): 8.98 µM
- IC50 (second compound 3.16 µM): > 10 µM
- IC50 (second compound 10 µM): > 10 µM
- viability, T/C [3]: 109%
- viability, T/C [4]: 128%
- viability, T/C [5]: 122%
- viability, T/C [6]: 120%
- viability, T/C (second compound 0.0316 µM, first compound 3.16 µM): 108%
- viability, T/C (second compound 0.0316 µM, first compound 10 µM): 47.8%
- viability, T/C [9]: 92.7%
- viability, T/C [10]: 117%
- viability, T/C [11]: 119%
- viability, T/C [12]: 110%
- viability, T/C (second compound 0.1 µM, first compound 3.16 µM): 104%
- viability, T/C (second compound 0.1 µM, first compound 10 µM): 44.6%
- viability, T/C [15]: 97.5%
- viability, T/C [16]: 93.5%
- viability, T/C [17]: 112%
- viability, T/C [18]: 111%
- viability, T/C (second compound 0.316 µM, first compound 3.16 µM): 129%
- viability, T/C (second compound 0.316 µM, first compound 10 µM): 49.7%
- viability, T/C [21]: 97.3%
- viability, T/C [22]: 99.2%
- viability, T/C [23]: 106%
- viability, T/C [24]: 121%
- viability, T/C (second compound 1 µM, first compound 3.16 µM): 122%
- viability, T/C (second compound 1 µM, first compound 10 µM): 43.8%
- viability, T/C [27]: 108%
- viability, T/C [28]: 140%
- viability, T/C [29]: 140%
- viability, T/C [30]: 101%
- viability, T/C (second compound 3.16 µM, first compound 3.16 µM): 106%
- viability, T/C (second compound 3.16 µM, first compound 10 µM): 50.7%
- viability, T/C [33]: 94.8%
- viability, T/C [34]: 98.6%
- viability, T/C [35]: 109%
- viability, T/C [36]: 102%
- viability, T/C (second compound 10 µM, first compound 3.16 µM): 98.5%
- viability, T/C (second compound 10 µM, first compound 10 µM): 57%

Structure (SMILES): CC[C@@]1(O)C(=O)OCc2c1cc1n(c2=O)Cc2cc3c(CN(C)C)c(O)ccc3nc2-1 + Nc1ccc(C#CCN(C(=O)Cc2ncc(C(F)(F)F)cc2C(F)(F)F)c2ccc(F)cc2)nn1
- IC50 (second compound 0.0316 µM): > 0.1 µM
- IC50 (second compound 0.1 µM): > 0.1 µM
- IC50 (second compound 0.316 µM): > 0.1 µM
- IC50 (second compound 1 µM): > 0.1 µM
- IC50 (second compound 3.16 µM): > 0.1 µM
- IC50 (second compound 10 µM): > 0.1 µM
- viability, T/C (second compound 0.0316 µM, first compound 0.000316 µM): 133%
- viability, T/C (second compound 0.0316 µM, first compound 0.001 µM): 112%
- viability, T/C [1]: 108%
- viability, T/C [2]: 101%
- viability, T/C [3]: 88.5%
- viability, T/C [4]: 77.8%
- viability, T/C (second compound 0.1 µM, first compound 0.000316 µM): 111%
- viability, T/C (second compound 0.1 µM, first compound 0.001 µM): 107%
- viability, T/C [7]: 105%
- viability, T/C [8]: 94.7%
- viability, T/C [9]: 94.8%
- viability, T/C [10]: 84.6%
- viability, T/C (second compound 0.316 µM, first compound 0.000316 µM): 106%
- viability, T/C (second compound 0.316 µM, first compound 0.001 µM): 102%
- viability, T/C [13]: 86.7%
- viability, T/C [14]: 103%
- viability, T/C [15]: 112%
- viability, T/C [16]: 92.9%
- viability, T/C (second compound 1 µM, first compound 0.000316 µM): 99.6%
- viability, T/C (second compound 1 µM, first compound 0.001 µM): 106%
- viability, T/C [19]: 107%
- viability, T/C [20]: 111%
- viability, T/C [21]: 109%
- viability, T/C [22]: 96%
- viability, T/C (second compound 3.16 µM, first compound 0.000316 µM): 94.2%
- viability, T/C (second compound 3.16 µM, first compound 0.001 µM): 112%
- viability, T/C [25]: 95%
- viability, T/C [26]: 96.9%
- viability, T/C [27]: 92.2%
- viability, T/C [28]: 96.6%
- viability, T/C (second compound 10 µM, first compound 0.000316 µM): 102%
- viability, T/C (second compound 10 µM, first compound 0.001 µM): 103%
- viability, T/C [31]: 95%
- viability, T/C [32]: 94.2%
- viability, T/C [33]: 99.6%
- viability, T/C [34]: 68.5%
